According to article PMC7486940, “Pre-symptomatic Caspase-1 inhibitor delays cognitive decline in a mouse model of Alzheimer disease and aging” (Nature Communications, 2020):

Tests used:
J20 mice [1] = test: novel object recognition (NOR), episodic memory; assay type: in vivo, mouse
Procedure: (§1) VX-765 (Adooq Bioscience, Irvine, CA, USA) was dissolved 5 mg • ml^−1 in 20% cremophor in dH2O[60] (Sigma-Aldrich, ON, Canada) and administered IPWT and J20 mice received three injections per week of either 50 mg • kg^−1 VX-765 or 20% cremophor vehicle for 4 weeks between 2 and 3 months of age. Mice were longitudinally followed starting 4 weeks after the last injection [4-week washout (WO)], then every other month at 12- and 20-week WO (6 and 8 months of age, respectively). Intermediate 8- and 16-week WO periods were also looked at with a smaller number of mice. After each WO period, animals were randomly chosen, independent of behavioural performance, for sacrifice and assigned to either histological or biochemical analysis (Fig. 2a).
(§2) Open-field and novel object recognition (NOR) were measured at all WO periods. The Barnes maze was assessed at 12- and 20-week WO. Open field: Mice were placed in an open-field chamber, composed of a plexiglass box with no ceiling and white floor, and allowed to explore for 5 min. NOR: Mice were pre-exposed to two identical objects in the open-field chamber for 5 min. Two hours after pre-exposure, mice were placed back into the chamber and exposed to one familiar object and one novel object for 5 min (test phase). Mice were exposed to a specific object only once across multiple test sessions. Barnes maze: Learning acquisition (days 1–4)—each mouse was trained to find the target and enter the escape box within 180 s. Four trials per day, ~15 min apart, were performed for 4 consecutive days. Probe (day 5)—a single, 90 s trial was performed on each mouse to measure primary latency and number of errors to reach the blocked target. Target hole location was changed between the two separate test sessions. Behavioural scoring was blinded to mouse genotype and treatment.

WT mice = test: novel object recognition (NOR), episodic memory; assay type: in vivo, mouse
Procedure: as §1, §2

CD68 = CD68 immunostaining of phagocytic microglia and macrophages; assay type: in vivo, mouse; settings: VX-765-treated J20; 20-week WO; no staining in any vehicle-treated J20
Procedure: as §1
Mice for immunohistochemistry were isoflurane anesthetized and perfused with ice-cold 4% paraformaldehyde in 0.1 M PBS (Sigma-Aldrich). Brains were post-fixed overnight in 10% neutral-buffered formalin (ThermoFisher Scientific, ON, Canada) and transferred to 70% ethanol for paraffin embedding and sectioning at 4 μm. Tissue slides underwent heat-induced antigen retrieval with citrate or EDTA buffer. Immunostaining was performed using the Dako Autostainer Plus slide processor and EnVision Flex system (Dako, ON, Canada). […]

J20 mice [2] = tested on: J20 mice; design: method as in PMID 30254377; settings: cited from earlier work
all other caspases = tested on: all other caspases; design: method as in PMID 30254377, PMID 17289835; settings: cited from earlier work
CD4 T-cell = tested on: CD4 T-cell; design: method as in PMID 24356306; settings: HIV; cited from earlier work
[3] = tested on: proteolipid protein-synuclein mouse model; design: method as in PMID 27482103; settings: proteolipid protein-synuclein mouse model of multiple systems atrophy; cited from earlier work

SMILES: CCO[C@@H]1OC(=O)C[C@@H]1NC(=O)[C@@H]1CCCN1C(=O)[C@@H](NC(=O)c1ccc(N)c(Cl)c1)C(C)(C)C [VX-765, (S)-1-((S)-2-{[1-(4-amino-3-chloro-phenyl)-methanoyl]-amino}-3,3-dimethyl-butanoyl)-pyrrolidine-2-carboxylic acid ((2R,3S)-2-ethoxy-5-oxo-tetrahydro-furan-3-yl)-amide]
- delay of the onset of cognitive impairment (J20 mice [1]; J20, 50 mg/kg IP 3x/week for 1 month, pre-symptomatic): at least 5 months
- NOR discrimination index (NOR impairment) (J20 mice [1]; J20, pre-symptomatic 50 mg/kg IP 3x/week for 1 month, 4-, 8-, 12-, 16- and 20-week WO, vs vehicle-treated J20): protected J20 mice against NOR impairment at all WO periods
- percentage of NOR impaired mice (J20 mice [1]; VX-765-treated J20, 50 mg/kg IP 3x/week for 1 month): increased consistently between 4- and 20-week WO
- NOR performance over washout (J20 mice [1]; VX-765-treated J20, 50 mg/kg IP 3x/week for 1 month, 4- vs 20-week WO): declined between 4- and 20-week WO
- NOR performance (WT mice; VX-765-treated WT, 6-month-old (12-week WO) vs VX-765-treated 4-month-old WT): increased
- NOR performance (WT mice; WT, 8-month-old (20-week WO), 50 mg/kg IP 3x/week for 1 month, vs same age vehicle-treated WT): increased
- percentage of NOR impaired mice (WT mice; WT, 50 mg/kg IP 3x/week for 1 month, 12- to 20-week WO): increased between 12- and 20-week WO in the vehicle-treated, but not VX-765-treated WT mice
- mice with CD68 positive staining (CD68): four out of the five
- toxicity (J20 mice [2]): non-toxic
- memory deficits, inflammation, synaptic loss and Aβ accumulation (J20 mice [2]; given at the onset of the J20 mouse symptoms): reverses spatial and episodic memory deficits, inflammation and synaptic loss, and prevents progressive Aβ accumulation
- specificity to Casp1 (all other caspases): specificity to Casp1 against all other caspases
- inflammation, CD4 T-cell death and pyroptosis (CD4 T-cell): reduce inflammation by suppressing CD4 T-cell death and pyroptosis in HIV
- alpha-synuclein toxicity [3]: protect against alpha-synuclein toxicity
